Reference: PubChem BioAssay (NCI)
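GI50: concentration for 50% inhibition of growth. TGI denotes the concentration required for complete inhibition of growth.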

How the values were obtained:
Experiment in all cases: NCI tumour cell line growth inhibition, 384-well format
SNB-19 CNS = system: SNB-19 CNS
MDA-MB-468 breast = system: MDA-MB-468 breast
HOP-62 NSCLC = system: HOP-62 NSCLC
ACHN renal = system: ACHN renal
A549 NSCLC = system: A549 NSCLC
HCT-15 colon = system: HCT-15 colon
OVCAR-3 ovarian = system: OVCAR-3 ovarian
HCT-116 colon = system: HCT-116 colon
HS 578T breast = system: HS 578T breast
RPMI-8226 leukemia = system: RPMI-8226 leukemia
MALME-3M melanoma = system: MALME-3M melanoma
LOX IMVI melanoma = system: LOX IMVI melanoma
SF-295 CNS = system: SF-295 CNS

## O=C(c1ccccc1O)c1[nH]c(Cl)c(Cl)c1-n1c(C(=O)c2ccccc2O)cc(Cl)c1Cl
SNB-19 CNS
  GI50: 373 nM
  TGI: 3960 nM
MDA-MB-468 breast
  GI50: 13 nM
  TGI: 267 nM
HOP-62 NSCLC
  GI50: 552 nM
  TGI: 1590 nM
ACHN renal
  GI50: 649 nM
  TGI: 2780 nM
A549 NSCLC
  GI50: 654 nM
  TGI: 2480 nM
HCT-15 colon
  GI50: 277 nM
  TGI: 1040 nM
OVCAR-3 ovarian
  GI50: 353 nM
  TGI: 1500 nM
HCT-116 colon
  GI50: 248 nM
  TGI: 930 nM
HS 578T breast
  GI50: 157 nM
  TGI: 440 nM
RPMI-8226 leukemia
  GI50: 196 nM
  TGI: 388 nM
MALME-3M melanoma
  GI50: 670 nM
  TGI: 2170 nM
LOX IMVI melanoma
  GI50: 833 nM
  TGI: 2330 nM
SF-295 CNS
  GI50: 448 nM
  TGI: 1300 nM
